Data on twelve compounds can be found in article PMC12368479, “Inhibition of the Clathrin Terminal Domain—Amphiphysin Protein–Protein Interaction. Probing the Pitstop 2 Aromatic Moiety” (Chemmedchem, 2025).

Like-named read-outs stand apart in the source and are kept apart here.

In general, IC50 refers to the concentration at which inhibition is half-maximal. For orientation: inhibition means how much of the control response was suppressed.

The nature of data set [1]: Qualitative solubility in solvents (compound data sheets, Supporting Information). The class given is physicochemical. The conditions noted are these: solvents in which the compound dissolves.
Data set [2] has as its target T1, clathrin heavy chain NTD (amino acids 1–364) – amphiphysin 1 B/C domain protein–protein interaction (NTD‐PPI) (Homo sapiens, UniProt Q00610).
T1 construct: GST‐tagged clathrin heavy chain NTD (amino acids 1–364); made in house
T1 sequence (Q00610 1-364): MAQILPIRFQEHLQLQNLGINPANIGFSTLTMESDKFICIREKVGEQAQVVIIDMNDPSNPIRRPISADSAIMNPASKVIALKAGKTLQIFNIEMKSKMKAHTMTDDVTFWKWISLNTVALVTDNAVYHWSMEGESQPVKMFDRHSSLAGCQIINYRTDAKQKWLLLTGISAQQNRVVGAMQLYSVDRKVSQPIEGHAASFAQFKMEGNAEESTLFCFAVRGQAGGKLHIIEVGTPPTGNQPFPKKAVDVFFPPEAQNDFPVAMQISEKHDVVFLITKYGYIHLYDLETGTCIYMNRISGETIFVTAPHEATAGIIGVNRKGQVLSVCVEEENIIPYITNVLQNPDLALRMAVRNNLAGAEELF
In words: ELISA-based clathrin inhibitor binding assay (NTD-PPI). Put shortly: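 His6-tagged amphiphysin 1 B/C domain (aa 250–578) was coated on plates in 20 mM HEPES pH 7.4, 50 mM NaCl, 1 mM DTT; compounds were incubated 1 h at room temperature with GST-clathrin NTD (aa 1–364). Bound NTD was detected by HRP anti-GST and TMB absorbance, expressed as percent binding of DMSO control.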
In general terms: In an ELISA, binding on a coated surface is turned into a signal by an enzyme label.

Data set [3] concerns the target T2, full length human Dynamin I (Homo sapiens, UniProt Q05193).
T2 construct: full length human Dynamin I expressed in Sf21 insect cells; made in house; host or cells: Sf21 insect cells
T2 sequence (Q05193 1-864): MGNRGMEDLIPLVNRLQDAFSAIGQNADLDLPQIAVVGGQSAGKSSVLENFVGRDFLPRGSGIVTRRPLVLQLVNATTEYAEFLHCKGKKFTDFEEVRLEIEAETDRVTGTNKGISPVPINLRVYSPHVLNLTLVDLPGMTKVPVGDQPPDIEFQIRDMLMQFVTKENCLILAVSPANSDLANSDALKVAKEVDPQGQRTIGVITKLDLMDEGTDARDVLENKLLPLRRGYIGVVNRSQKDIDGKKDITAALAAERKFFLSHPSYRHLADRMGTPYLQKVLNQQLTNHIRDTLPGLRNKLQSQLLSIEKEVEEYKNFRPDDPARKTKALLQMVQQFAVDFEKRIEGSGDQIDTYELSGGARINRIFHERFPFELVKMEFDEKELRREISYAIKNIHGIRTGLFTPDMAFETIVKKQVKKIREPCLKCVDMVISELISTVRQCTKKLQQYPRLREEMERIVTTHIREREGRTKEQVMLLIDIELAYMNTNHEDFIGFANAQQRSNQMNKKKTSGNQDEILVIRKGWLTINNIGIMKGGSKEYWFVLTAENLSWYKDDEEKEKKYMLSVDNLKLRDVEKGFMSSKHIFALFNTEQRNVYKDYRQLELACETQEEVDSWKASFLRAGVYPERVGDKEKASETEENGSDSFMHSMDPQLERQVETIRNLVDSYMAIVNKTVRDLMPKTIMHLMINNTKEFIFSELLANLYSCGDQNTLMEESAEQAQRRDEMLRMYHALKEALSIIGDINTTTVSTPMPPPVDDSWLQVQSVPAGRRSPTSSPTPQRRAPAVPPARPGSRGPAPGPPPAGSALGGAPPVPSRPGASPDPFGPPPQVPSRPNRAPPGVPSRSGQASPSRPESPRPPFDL
In words: Dynamin GTPase activity, Malachite Green phosphate detection assay. It counts as biochemical. How it is done:
Dynamin GTPase activity was determined in vitro using the Malachite Green phosphate detection absorbance‐based assay within a 96‐well plate format as described previously. The enzyme source was full length human Dynamin I expressed in Sf21 insect cells and affinity‐purified on GST‐Amph2‐SH3 (rat Amphiphysin 2 (494–588)).^[ [56] ^]

Data set [4] has as its system transferrin uptake (CME) in U2OS osteosarcoma cells. The data set can be described thus: Clathrin-mediated endocytosis assay: transferrin (Tfn) uptake in U2OS cells. The class given is cell-based. The note with it: Homo sapiens, U2OS; for inhibition at 5 µM: read-out: 2-point CME (% Inhibition) 5 µM; for inhibition at 50 µM: read-out: 2-point CME (% Inhibition) 50 µM. How it is done:
Using our previously reported CME assay in U2OS cells, the ability of these compounds to block endocytosis was examined (Table 5 ).^[ [48], [49] ^]
CME was examined by a high‐throughput, quantitative assay for measuring transferrin (Tfn) uptake in U2OS osteosarcoma cells, based on methods described previously.^[ [48] ^]
Compounds were made up fresh from powder stock just prior to commencing the assay, and stock solutions were stored at −20 °C for several months.

The mark [5] stands for this setting: Table 1, library 1, ELISA, average of duplicate measurements (n=2), read-out: NTD‐PPI IC50.
The mark [6] stands for this setting: Table 1, library 1, n = 1 unless noted (19: n = 2), '–' = not active at 150 μM, read-out: Dyn 1 IC50.
[7] abbreviates: Table 5, inhibition of transferrin‐red uptake in U2OS cells, '–'/NA = not active at 100 μM.
The mark [8] stands for this setting: Table 5, dynamin GTPase, n = 1 or n = 2 as footnoted, NA = not active at 100 μM, read-out: Dynamin 1 IC50.
The mark [9] stands for this setting: Table 4, library 4, ELISA, average of duplicate measurements (n = 2), read-out: NTD‐PPI IC50.
Setting [10] is: Table 4, library 4, n = 1 or n = 2 as footnoted, '–' = not active at 100 μM, read-out: Dynamin 1 IC50.
Setting [11] is: Table 5, ELISA, read-out: NTD‐PPI IC50.
[12] abbreviates: Table S1, preliminary (n=1) unless otherwise noted, NA = not active, includes IC50 > 150 μM, read-out: Dynamin 1 IC50.

As to `O=C1N=C(NS(=O)(=O)c2cccc3ccccc23)S/C1=C\c1cccc(C(=O)O)c1` [compound 10, (Z)‐3‐((2‐(naphthalene‐1‐sulfonamido)‐4‐oxothiazol‐5(4 H)‐ylidene)methyl)benzoic acid], the Solubility result in data set [1] is on record as “DMSO”. For the same compound, the IC50 in data set [2] (setting [5]) was 5.3 µM; in data set [3] (setting [6]) it was above 150 µM.
With `O=C1N=C(NS(=O)(=O)c2cccc3ccccc23)S/C1=C\c1cccc(O)c1` [compound 7, N‐[(5Z)‐5‐(3‐hydroxybenzylidene)‐4‐oxo‐4,5‐dihydro‐1,3‐thiazol‐2‐yl]naphthalene‐1‐sulfonamide], the Solubility result in data set [1] is “DMSO, slightly soluble in acetone, ethyl acetate, methanol and ethanol”. Besides, the 50% inhibitory concentration (IC50) in data set [4] (setting [7]) was 25 ± 14.6 µM; in data set [3] (setting [6]) it was above 150 µM; in data set [3] (setting [8]) it was above 100 µM.
`O=C1N=C(NS(=O)(=O)c2cccc3ccccc23)S/C1=C\c1ccc2c(c1)CCO2` [compound 57, (Z)‐N‐(5‐((2,3‐dihydrobenzofuran‐5‐yl)methylene)‐4‐oxo‐4,5‐dihydrothiazol‐2‐yl)naphthalene‐1‐sulfonamide]: in data set [1], the Solubility entry is “DM SO, slig htly soluble in ethyl acetate, aceton e, ethanol and methanol”. Also, the 50% inhibitory concentration (IC50) in data set [2] (setting [9]) was 3.27 µM; in data set [2] (read-out: NTD‐PPI IC50 (ELISA)), below 5 µM; in data set [4] (setting [7]), 58.1 ± 12.6 µM; in data set [4] (U2OS cells), above 50 µM; in data set [3] (setting [10]), above 100 µM; in data set [3] (setting [8]) it was above 100 µM.
Regarding `O=C1N=C(NS(=O)(=O)c2cccc3ccccc23)S/C1=C\c1cccc([N+](=O)[O-])c1` [compound 14, (Z)‐N‐(5‐(3‐nitrobenzylidene)‐4‐oxo‐4,5‐dihydrothiazol‐2‐yl)naphthalene‐1‐sulfonamide], the Solubility result in data set [1] is “DMSO, slightly soluble in acetone, ethanol and methanol”. For the same compound, the figures for the IC50 in data set [4] (setting [7]), in data set [3] (setting [6]) and in data set [3] (setting [8]) were 34.4 ± 13.7 µM, above 150 µM and above 100 µM, respectively.
In the case of `O=C1N=C(NS(=O)(=O)c2cccc3ccccc23)S/C1=C\c1ccccc1[N+](=O)[O-]` [compound 15, (Z)‐N‐(5‐(2‐nitrobenzylidene)‐4‐oxo‐4,5‐dihydrothiazol‐2‐yl)naphthalene‐1‐sulfonamide], in data set [1], the Solubility result is “DMSO, slightly soluble in ethyl acetate, acetone, ethanol and methanol”. Moreover, the “fold potency reduction (NTD‐PPI)” value in data set [2] (ELISA, comparator not named (lead Pitstop 2 series)) is above 100 fold. Moreover, the IC50 in data set [2] (setting [5]) is 153 µM; in data set [2] (setting [11]), 153 µM; in data set [4] (setting [7]), 46.3 ± 13.7 µM; in data set [3] (setting [6]) it was 42.2 µM; in data set [3] (setting [8]) it was around 42.4 µM.
For `O=C1N=C(NS(=O)(=O)c2cccc3ccccc23)S/C1=C\c1ccco1` [compound 48, (Z)‐N‐(5‐(furan‐2‐ylmethylene)‐4‐oxo‐4,5‐dihydrothiazol‐2‐yl)naphthalene‐1‐sulfonamide], in data set [1], the Solubility entry is “DM SO, slig htly soluble in methanol”. Besides, the 50% inhibitory concentration (IC50) in data set [2] (setting [9]) was 3.64 µM; in data set [2] (setting [11]), 3.64 µM; in data set [2] (read-out: NTD‐PPI IC50 (ELISA)), 3.6 µM; in data set [4] (setting [7]) it was around 96.6 µM; in data set [4] (U2OS cells) it was above 50 µM.
Turning to `O=C1N=C(NS(=O)(=O)c2cccc3ccccc23)S/C1=C\c1ccc(C(=O)O)cc1` [compound 9, 4‐[(Z)‐{2‐[(naphthalen‐1‐ylsulfonyl)amino]‐4‐oxo‐1,3‐thiazol‐5(4H)‐ylidene}methyl]benzoic acid], in data set [1], the Solubility entry was “DMSO, slightly soluble in acetone, ethyl acetate, ethanol and methanol”. Besides, the IC50 in data set [2] (setting [5]) was 7.4 µM; in data set [3] (setting [6]), above 150 µM.
For the compound `CCCC/C=C1\SC(NS(=O)(=O)c2cccc3ccccc23)=NC1=O` [compound 42, (Z)‐N‐(4‐oxo‐5‐pentylidene‐4,5‐dihydrothiazol‐2‐yl)naphthalene‐1‐sulfonamide], the IC50 was 6.5 µM in data set [2] (Table 3, library 3, ELISA, average of duplicate measurements (n = 2), read-out: NTD‐PPI IC50); above 100 µM in data set [3] (Table 3, library 3, n = 1 unless otherwise stated (41, 42: n = 2), '–' = not active at 100 μM, read-out: Dynamin 1 IC50); above 150 µM in data set [3] (setting [12]). In data set [4], the inhibition at 5 µM was 0%. For the same compound, the inhibition at 50 µM in data set [4] is 31%.
`O=C1N=C(NS(=O)(=O)c2cccc3ccccc23)S/C1=C\c1ccc[nH]1` [compound 47, (Z)‐N‐(5‐((1H‐pyrrol‐2‐yl)methylene)‐4‐oxo‐4,5‐dihydrothiazol‐2‐yl)naphthalene‐1‐sulfonamide]: in data set [1], the Solubility entry was “DM SO slightly soluble in acetone an d methanol”. In data set [2] (ELISA, C2 linked analogues), the “fold less active (NTD‐PPI) than furan (48)” value turned out to be 2 fold. In addition, the values for the IC50 in data set [2] (setting [9]), in data set [2] (setting [11]) and in data set [4] (setting [7]) were 5.3 µM, 5.3 µM and 27.2 ± 11.7 µM, respectively.
`Cc1ccc2[nH]cc(/C=C3\SC(NS(=O)(=O)c4cccc5ccccc45)=NC3=O)c2c1` [compound 63, (Z)‐N‐(5‐((5‐methyl‐1H‐indol‐3‐yl)methylene)‐4‐oxo‐4,5‐dihydrothiazol‐2‐yl)naphthalene‐1‐sulfonamide]: the half-inhibitory concentration (IC50) in data set [2] (setting [9]) is 3.52 µM; in data set [2] (read-out: NTD‐PPI IC50 (ELISA)), 3.5 µM; in data set [3] (setting [10]), above 100 µM; in data set [3] (setting [12]), above 150 µM. For the same compound, the inhibition at 5 µM in data set [4] turned out to be 6%. The inhibition at 50 µM in data set [4] came out at 68%.
As to `O=C1N=C(NS(=O)(=O)c2cccc3ccccc23)S/C1=C\c1cn(S(=O)(=O)c2ccccc2)c2ccccc12` [compound 68, (Z)‐N‐(4‐oxo‐5‐((1‐(phenylsulfonyl)‐1H‐indol‐3‐yl)methylene)‐4,5‐dihydrothiazol‐2‐yl)naphthalene‐1‐sulfonamide], the IC50 is 27 µM in data set [2] (setting [9]); 27 µM in data set [2] (setting [11]); above 100 µM in data set [4] (setting [7]); 99.8 ± 3.1 µM in data set [3] (setting [10]); 99.8 ± 3.1 µM in data set [3] (setting [8]). Also, the inhibition at 5 µM in data set [4] was determined as 8%. The inhibition at 50 µM in data set [4] was 59%.
With `Cc1[nH]c2ccccc2c1/C=C1\SC(NS(=O)(=O)c2cccc3ccccc23)=NC1=O` [compound 62, (Z)‐N‐(5‐((2‐methyl‐1H‐indol‐3‐yl)methylene)‐4‐oxo‐4,5‐dihydrothiazol‐2‐yl)naphthalene‐1‐sulfonamide], the IC50 in data set [2] (setting [9]) is 2.37 µM; in data set [2] (read-out: NTD‐PPI IC50 (ELISA)), 2.4 µM; in data set [3] (setting [10]), above 100 µM; in data set [3] (setting [12]), above 150 µM. Also, the inhibition at 5 µM in data set [4] was determined as 6%. The inhibition at 50 µM in data set [4] turned out to be 71%.
